Data: article PMC9851200, “Multiparameter phenotypic screening for endogenous TFEB and TFE3 translocation identifies novel chemical series modulating lysosome function” (Autophagy, 2022)

Experiments:
Format in all cases: binding
[1] = molecular target: kinases (KINOMEscan panel) (Homo sapiens, UniProt P49336); conditions: CDK8; NEW KINOMEscan
[2] = molecular target: kinases (KINOMEscan panel) (Homo sapiens, UniProt Q8NI60); conditions: COQ8A; NEW KINOMEscan
[3] = molecular target: kinases (KINOMEscan panel) (Homo sapiens, UniProt P11309); conditions: NEW KINOMEscan
[4] = molecular target: kinases (KINOMEscan panel) (Homo sapiens, UniProt Q05655); conditions: kinase PRKCD; NEW KINOMEscan
[5] = molecular target: kinases (KINOMEscan panel) (Homo sapiens, UniProt O75460); conditions: NEW KINOMEscan
[6] = molecular target: T1, kinases (KINOMEscan panel) (Homo sapiens, UniProt P20794); conditions: NEW KINOMEscan
T1 sequence (P20794 1-623): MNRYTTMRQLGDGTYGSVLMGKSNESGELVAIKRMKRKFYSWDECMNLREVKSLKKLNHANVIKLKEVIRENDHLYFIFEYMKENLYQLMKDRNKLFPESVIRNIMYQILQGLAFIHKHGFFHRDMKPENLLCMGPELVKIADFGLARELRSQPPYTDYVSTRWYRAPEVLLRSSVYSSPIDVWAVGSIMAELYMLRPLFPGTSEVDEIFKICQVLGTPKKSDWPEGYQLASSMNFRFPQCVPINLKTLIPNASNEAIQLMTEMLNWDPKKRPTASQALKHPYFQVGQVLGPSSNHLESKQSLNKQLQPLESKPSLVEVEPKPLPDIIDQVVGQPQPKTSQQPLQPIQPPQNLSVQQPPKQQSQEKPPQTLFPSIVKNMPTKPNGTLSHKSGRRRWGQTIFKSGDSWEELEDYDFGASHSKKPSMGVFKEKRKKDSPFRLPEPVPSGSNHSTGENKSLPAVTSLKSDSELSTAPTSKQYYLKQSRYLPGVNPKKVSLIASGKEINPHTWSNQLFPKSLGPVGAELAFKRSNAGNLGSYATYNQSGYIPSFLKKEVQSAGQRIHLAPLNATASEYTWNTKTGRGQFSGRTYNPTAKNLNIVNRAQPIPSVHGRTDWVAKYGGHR

[7] = molecular target: kinases (KINOMEscan panel) (Homo sapiens, UniProt P00533, L861Q); conditions: kinase EGFR(L861Q); NEW KINOMEscan
[8] = molecular target: kinases (KINOMEscan panel) (Homo sapiens, UniProt P24941); conditions: CDK2; NEW KINOMEscan
[9] = molecular target: T2, kinases (KINOMEscan panel) (Homo sapiens, UniProt Q9UL54); conditions: kinase TAOK2; NEW KINOMEscan
T2 sequence (Q9UL54 1-1235): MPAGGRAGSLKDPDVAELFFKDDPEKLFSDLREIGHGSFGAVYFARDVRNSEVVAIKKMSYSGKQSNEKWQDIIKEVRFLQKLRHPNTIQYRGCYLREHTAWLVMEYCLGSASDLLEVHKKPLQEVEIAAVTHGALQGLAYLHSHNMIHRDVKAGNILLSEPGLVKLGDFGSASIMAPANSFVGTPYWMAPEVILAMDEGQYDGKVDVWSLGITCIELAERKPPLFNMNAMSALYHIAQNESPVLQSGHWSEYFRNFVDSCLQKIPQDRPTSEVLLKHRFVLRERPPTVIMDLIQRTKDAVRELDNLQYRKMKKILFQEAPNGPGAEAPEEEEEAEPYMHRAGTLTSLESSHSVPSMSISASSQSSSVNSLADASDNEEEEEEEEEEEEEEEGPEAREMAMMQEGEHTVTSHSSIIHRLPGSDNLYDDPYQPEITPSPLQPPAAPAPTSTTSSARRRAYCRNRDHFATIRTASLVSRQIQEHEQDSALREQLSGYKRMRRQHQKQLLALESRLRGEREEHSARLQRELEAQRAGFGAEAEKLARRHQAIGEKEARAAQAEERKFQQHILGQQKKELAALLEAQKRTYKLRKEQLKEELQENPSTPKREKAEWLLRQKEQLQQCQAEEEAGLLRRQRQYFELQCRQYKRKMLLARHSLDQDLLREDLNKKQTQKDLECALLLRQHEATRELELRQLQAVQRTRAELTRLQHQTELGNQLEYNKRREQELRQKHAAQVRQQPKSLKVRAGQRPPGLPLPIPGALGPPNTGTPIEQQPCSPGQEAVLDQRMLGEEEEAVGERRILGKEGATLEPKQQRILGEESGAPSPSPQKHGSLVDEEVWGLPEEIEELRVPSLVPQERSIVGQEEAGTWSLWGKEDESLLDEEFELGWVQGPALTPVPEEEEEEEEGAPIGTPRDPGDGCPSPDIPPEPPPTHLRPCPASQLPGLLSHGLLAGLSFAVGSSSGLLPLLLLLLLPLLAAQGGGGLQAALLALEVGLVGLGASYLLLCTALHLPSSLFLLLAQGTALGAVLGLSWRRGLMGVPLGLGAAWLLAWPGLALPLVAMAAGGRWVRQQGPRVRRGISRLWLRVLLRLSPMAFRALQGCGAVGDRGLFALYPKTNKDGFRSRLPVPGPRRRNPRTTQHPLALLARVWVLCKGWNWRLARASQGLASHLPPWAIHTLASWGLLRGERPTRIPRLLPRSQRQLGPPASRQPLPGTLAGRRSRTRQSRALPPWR

[10] = molecular target: T3, kinases (KINOMEscan panel) (Homo sapiens, UniProt Q9HBY8); conditions: NEW KINOMEscan
T3 sequence (Q9HBY8 1-367): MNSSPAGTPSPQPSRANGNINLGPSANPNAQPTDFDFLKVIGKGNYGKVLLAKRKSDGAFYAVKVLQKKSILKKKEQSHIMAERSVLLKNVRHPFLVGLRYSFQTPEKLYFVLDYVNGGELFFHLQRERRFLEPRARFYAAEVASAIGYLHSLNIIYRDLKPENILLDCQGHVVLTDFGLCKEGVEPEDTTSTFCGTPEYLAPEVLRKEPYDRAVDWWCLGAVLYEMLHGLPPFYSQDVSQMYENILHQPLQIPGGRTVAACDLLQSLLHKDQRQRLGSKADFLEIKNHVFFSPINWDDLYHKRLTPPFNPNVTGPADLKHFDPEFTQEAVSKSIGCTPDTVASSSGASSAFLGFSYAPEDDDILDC

[11] = molecular target: kinases (KINOMEscan panel) (Homo sapiens, UniProt P49760); conditions: kinase CLK2; NEW KINOMEscan
[12] = molecular target: kinases (KINOMEscan panel) (Homo sapiens, UniProt Q07912); conditions: TNK2; NEW KINOMEscan
Chain of kinases (KINOMEscan panel) (Homo sapiens, UniProt Q07912) (Q07912 whole entry): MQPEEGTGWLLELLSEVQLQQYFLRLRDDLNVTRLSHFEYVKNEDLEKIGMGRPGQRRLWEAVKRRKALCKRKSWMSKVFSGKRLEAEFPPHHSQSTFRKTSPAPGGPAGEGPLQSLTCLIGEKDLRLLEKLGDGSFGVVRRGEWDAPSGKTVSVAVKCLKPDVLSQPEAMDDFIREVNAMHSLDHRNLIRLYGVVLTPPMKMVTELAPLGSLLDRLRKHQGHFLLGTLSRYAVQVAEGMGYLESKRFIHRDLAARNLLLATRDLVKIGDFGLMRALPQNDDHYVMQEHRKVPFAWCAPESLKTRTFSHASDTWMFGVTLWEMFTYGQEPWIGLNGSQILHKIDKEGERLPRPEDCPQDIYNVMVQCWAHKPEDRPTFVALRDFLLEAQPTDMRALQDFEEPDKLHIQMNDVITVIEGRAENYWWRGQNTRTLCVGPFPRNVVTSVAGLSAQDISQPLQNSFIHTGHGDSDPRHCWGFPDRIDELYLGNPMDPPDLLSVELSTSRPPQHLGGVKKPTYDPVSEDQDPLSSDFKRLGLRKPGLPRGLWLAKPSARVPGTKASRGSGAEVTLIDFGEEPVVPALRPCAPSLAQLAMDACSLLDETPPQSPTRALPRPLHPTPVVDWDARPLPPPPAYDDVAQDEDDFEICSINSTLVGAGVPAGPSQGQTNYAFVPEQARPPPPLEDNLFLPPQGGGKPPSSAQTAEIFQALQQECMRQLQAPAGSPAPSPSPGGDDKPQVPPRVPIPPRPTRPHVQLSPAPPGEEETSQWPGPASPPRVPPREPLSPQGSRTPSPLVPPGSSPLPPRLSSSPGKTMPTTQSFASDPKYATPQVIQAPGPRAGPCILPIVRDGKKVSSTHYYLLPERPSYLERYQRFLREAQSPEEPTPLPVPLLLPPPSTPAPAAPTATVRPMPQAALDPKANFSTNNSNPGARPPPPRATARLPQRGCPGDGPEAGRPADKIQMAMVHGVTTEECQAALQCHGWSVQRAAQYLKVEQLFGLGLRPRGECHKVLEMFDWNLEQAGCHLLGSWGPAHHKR

Chain of kinases (KINOMEscan panel) (Homo sapiens, UniProt P11309) (P11309 whole entry): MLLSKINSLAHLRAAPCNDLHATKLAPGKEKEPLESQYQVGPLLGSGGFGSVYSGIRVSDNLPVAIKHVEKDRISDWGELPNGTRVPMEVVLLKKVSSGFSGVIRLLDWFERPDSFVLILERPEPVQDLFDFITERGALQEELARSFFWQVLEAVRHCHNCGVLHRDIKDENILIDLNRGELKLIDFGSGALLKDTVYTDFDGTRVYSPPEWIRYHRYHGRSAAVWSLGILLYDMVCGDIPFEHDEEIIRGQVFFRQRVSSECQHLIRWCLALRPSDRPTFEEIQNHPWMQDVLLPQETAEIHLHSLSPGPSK
Chain of kinases (KINOMEscan panel) (Homo sapiens, UniProt P00533, L861Q) (P00533 25-1210 L861Q): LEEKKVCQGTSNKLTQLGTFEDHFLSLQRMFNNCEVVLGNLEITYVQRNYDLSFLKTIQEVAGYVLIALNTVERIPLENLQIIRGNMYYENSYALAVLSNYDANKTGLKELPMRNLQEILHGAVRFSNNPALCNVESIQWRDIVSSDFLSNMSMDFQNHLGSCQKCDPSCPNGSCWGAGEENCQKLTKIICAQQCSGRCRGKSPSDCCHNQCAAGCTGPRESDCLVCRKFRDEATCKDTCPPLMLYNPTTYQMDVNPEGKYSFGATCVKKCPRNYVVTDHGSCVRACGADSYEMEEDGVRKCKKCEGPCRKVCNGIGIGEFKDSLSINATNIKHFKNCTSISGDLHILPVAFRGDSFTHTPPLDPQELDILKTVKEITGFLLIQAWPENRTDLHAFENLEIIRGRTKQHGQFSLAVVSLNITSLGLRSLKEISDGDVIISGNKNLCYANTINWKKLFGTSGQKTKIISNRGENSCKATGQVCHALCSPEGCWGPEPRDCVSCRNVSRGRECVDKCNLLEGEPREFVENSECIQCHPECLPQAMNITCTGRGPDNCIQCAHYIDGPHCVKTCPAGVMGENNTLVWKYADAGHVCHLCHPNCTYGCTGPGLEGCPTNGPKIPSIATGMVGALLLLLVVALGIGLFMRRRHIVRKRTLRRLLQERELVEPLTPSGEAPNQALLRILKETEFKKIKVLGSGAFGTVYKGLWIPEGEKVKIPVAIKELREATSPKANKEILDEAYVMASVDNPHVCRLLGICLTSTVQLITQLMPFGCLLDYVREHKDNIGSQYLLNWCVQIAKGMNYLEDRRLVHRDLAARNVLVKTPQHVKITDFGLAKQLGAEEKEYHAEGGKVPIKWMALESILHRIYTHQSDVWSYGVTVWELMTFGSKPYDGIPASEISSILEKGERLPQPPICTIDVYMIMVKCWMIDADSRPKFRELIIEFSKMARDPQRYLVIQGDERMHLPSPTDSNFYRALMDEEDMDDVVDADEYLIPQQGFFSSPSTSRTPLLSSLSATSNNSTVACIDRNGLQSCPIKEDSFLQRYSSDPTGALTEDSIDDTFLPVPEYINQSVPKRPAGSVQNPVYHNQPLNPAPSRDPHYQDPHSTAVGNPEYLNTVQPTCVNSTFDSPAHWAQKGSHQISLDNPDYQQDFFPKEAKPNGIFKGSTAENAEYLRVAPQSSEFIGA
Chain of kinases (KINOMEscan panel) (Homo sapiens, UniProt P49760) (P49760 whole entry): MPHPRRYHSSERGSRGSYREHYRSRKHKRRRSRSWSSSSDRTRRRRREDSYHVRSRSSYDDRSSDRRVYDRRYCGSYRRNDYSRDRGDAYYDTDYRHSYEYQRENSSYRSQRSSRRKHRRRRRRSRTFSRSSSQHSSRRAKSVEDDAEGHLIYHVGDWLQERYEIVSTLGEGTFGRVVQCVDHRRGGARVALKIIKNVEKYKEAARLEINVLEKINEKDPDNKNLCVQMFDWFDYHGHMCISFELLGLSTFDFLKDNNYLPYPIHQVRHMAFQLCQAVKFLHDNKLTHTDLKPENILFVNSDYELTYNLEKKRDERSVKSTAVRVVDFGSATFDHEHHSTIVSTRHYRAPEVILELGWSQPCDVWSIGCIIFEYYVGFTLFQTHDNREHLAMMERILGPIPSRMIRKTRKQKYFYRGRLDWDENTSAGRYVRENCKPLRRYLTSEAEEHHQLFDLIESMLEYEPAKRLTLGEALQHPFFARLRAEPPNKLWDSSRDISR
Chain of kinases (KINOMEscan panel) (Homo sapiens, UniProt P49336) (P49336 whole entry): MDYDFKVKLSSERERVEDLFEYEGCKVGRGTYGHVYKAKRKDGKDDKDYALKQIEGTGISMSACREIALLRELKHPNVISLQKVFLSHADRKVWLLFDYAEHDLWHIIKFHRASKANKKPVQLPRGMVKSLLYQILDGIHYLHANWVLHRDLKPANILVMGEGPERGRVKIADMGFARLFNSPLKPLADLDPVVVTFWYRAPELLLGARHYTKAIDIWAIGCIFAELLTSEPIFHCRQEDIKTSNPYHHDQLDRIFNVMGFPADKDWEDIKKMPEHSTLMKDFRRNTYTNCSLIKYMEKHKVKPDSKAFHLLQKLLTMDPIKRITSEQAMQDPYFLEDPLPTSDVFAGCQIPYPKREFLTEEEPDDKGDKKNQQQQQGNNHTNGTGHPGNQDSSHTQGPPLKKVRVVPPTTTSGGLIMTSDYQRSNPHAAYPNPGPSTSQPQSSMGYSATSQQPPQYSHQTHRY
Chain of kinases (KINOMEscan panel) (Homo sapiens, UniProt Q8NI60) (Q8NI60 163-647): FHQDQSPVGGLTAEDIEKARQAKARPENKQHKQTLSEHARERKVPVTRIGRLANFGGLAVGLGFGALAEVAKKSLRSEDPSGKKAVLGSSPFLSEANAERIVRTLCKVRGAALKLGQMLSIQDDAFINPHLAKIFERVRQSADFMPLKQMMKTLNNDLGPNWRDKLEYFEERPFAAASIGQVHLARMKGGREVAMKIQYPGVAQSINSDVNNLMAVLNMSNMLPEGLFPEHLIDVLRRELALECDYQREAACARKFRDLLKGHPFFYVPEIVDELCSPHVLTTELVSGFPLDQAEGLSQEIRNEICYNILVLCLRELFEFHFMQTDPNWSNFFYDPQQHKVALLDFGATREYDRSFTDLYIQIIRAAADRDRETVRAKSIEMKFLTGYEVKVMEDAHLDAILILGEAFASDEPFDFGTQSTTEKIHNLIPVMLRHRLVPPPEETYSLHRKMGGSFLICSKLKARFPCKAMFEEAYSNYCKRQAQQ
Chain of kinases (KINOMEscan panel) (Homo sapiens, UniProt Q05655) (Q05655 whole entry): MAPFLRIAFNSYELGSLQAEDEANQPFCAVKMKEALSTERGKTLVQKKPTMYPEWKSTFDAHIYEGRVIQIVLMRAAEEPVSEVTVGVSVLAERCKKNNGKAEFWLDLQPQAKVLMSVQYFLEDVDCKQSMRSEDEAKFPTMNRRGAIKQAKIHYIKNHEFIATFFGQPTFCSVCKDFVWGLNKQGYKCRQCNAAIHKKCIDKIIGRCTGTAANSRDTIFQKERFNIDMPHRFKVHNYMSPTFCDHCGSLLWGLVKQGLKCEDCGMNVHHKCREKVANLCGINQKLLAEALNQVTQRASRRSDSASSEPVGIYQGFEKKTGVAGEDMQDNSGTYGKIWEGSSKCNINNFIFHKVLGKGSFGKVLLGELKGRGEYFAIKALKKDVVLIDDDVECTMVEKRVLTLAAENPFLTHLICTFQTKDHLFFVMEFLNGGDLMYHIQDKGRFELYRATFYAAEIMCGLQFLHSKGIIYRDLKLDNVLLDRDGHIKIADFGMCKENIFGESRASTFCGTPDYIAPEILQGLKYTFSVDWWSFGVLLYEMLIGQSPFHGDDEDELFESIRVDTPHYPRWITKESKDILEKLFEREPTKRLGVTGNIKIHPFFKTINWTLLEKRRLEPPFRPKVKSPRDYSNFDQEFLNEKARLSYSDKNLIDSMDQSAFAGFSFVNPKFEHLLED

Compound | KINOMEscan CDK8 [1] | KINOMEscan COQ8A [2] | KINOMEscan PIM1 [3] | KINOMEscan PRKCD [4] | KINOMEscan ERN1 [5] | KINOMEscan MAK or ALPK3 [6] | KINOMEscan EGFR(L861Q) [7] | KINOMEscan CDK2 [8] | KINOMEscan TAOK2 [9] | KINOMEscan SGK2 [10] | KINOMEscan CLK2 [11] | KINOMEscan TNK2 [12]
Cc1cccc(-c2nc(N(C)c3ccc4ncsc4c3)c3ccccc3n2)n1 [NK-161] | 12 | 1 | 29 | 16 | 11 | 5 | 0 | 0 | 20 | 15 | 0 | 0
Cc1cccc(-c2nc(Nc3ccc4nn(C)cc4c3)c3ccccc3n2)n1 [NK167] | 19 | 5 | 2 | 21 | 0 | 0 | 0 | 0 | 19 | 0 | 0 | 0
